{"source": "paper PMC10439028", "about": "“SGLT5 is the renal transporter for 1,5-anhydroglucitol, a major player in two rare forms of neutropenia” (Cellular and Molecular Life Sciences: CMLS, 2023)", "key": {"[1]": {"target": "T1, hSGLT5 Asn96Ile (Homo sapiens, UniProt A0PJK1, N96I)", "T1 construct": "pUB83-hSGLT5-iso2 as well as the various SGLT5 mutants obtained were used to transduce HEK293T cells; expressed in transfected cells; host or cells: HEK293T, lentiviral transduction (pUB83)", "T1 sequence (A0PJK1 1-596 N96I)": "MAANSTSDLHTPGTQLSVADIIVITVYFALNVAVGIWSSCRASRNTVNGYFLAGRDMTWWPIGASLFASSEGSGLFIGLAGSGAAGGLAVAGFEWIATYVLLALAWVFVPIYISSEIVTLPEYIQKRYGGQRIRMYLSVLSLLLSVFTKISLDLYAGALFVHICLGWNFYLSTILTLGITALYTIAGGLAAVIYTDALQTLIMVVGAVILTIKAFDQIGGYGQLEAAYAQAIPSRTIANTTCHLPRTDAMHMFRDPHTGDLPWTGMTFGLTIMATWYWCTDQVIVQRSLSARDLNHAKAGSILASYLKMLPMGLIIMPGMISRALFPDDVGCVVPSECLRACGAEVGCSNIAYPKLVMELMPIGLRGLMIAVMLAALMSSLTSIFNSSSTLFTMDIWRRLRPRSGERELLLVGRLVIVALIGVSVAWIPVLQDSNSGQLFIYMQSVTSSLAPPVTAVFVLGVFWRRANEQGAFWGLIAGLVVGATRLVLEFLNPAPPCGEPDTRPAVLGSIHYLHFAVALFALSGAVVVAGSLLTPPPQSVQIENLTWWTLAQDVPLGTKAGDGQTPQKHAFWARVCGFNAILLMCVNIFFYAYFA", "experiment": "Inhibition of 10 µM 1,5-AG transport by SGLT5 variant Asn96Ile", "format": "cell-based", "details": "mutation Asn96Ile versus SGLT5, Fig. 5D", "description": "(§1) The transport experiments to study the specificity of SGLT4 or SGLT5, were performed in the presence of 10 µM U-[^14C + ^12C]-mannose (for SGLT4) or 2-[^3H + ^1H]-1,5-AG (for SGLT5) and increasing concentrations of various sugars tested. The transport experiments to study the inhibition of empagliflozin, dapagliflozin or remogliflozin, on the transport of 1,5-AG by SGLT5 or its variants were performed in the presence of 10 µM 2-[^3H + ^1H]-1,5-AG and increasing concentrations of the various gliflozins tested.\n(§2) SGLT5 mutants were created using the quick-change site directed mutagenesis method that enables effective mutagenesis without subcloning of the amplified PCR products. Complementary primer pairs carrying the desired replacements (Supplementary Table 3) were designed using an online tool (https://www.agilent.com/store/primerDesignProgram.jsp). The PCR protocol was carried out following the manufacturer instructions regarding the KOD HOT Start polymerase kit (TOYOBO™, Novagen). The amplified DNA was cleaned-up from the reactions constituents using the GeneJET PCR purification Kit (Thermo Scientific™) and the size of the DNA fragment were verified by DNA agarose-gel electrophoresis. […]"}, "[2]": {"target": "T2, hSGLT5 Arg401His (Homo sapiens, UniProt A0PJK1, R401H)", "T2 construct": "pUB83-hSGLT5-iso2 as well as the various SGLT5 mutants obtained were used to transduce HEK293T cells; expressed in transfected cells; host or cells: HEK293T, lentiviral transduction (pUB83)", "T2 sequence (A0PJK1 1-596 R401H)": "T1 sequence (A0PJK1 1-596 N96I) with I96N, R401H", "experiment": "Inhibition of 10 µM 1,5-AG transport by SGLT5 variant Arg401His", "format": "cell-based", "details": "Fig. 5D", "description": "as §1, §2"}}, "note": "Positions count from the first letter of the chain named."}
{"molecule": "OC[C@H]1O[C@@H](c2ccc(Cl)c(Cc3ccc(O[C@H]4CCOC4)cc3)c2)[C@H](O)[C@@H](O)[C@@H]1O", "note": "[empagliflozin]", "values": [{"measurement": "effect of mutation on inhibition exerted by empagliflozin", "setting": "[1]", "result": "considerably decreased (by more than tenfold)"}, {"measurement": "effect of mutation on concentration of empagliflozin needed to inhibit SGLT5", "setting": "[2]", "result": "did not affect significantly"}]}
